pIC50: −log10 of the molar value. Structures can show the parent of a compound that is named as a salt. Where two headings read alike, the source gives them in different places.
Key:
SHV-5 β-lactamase = molecular target: T1, SHV-5 β-lactamase (Klebsiella pneumoniae, UniProt P0A3M1); experiment: β-lactamase enzyme inhibition assay (nitrocefin substrate), SHV-5; type: biochemical
T1 construct: expressed as native untagged proteins; made in house; host or cells: E. coli BL21(DE3)
Method in brief: (§1)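 Enzyme was first mixed with serially diluted compound (100 to 0.005 μM) in PBS pH 7.0 and held 10 min at 37 °C. Next, nitrocefin was dispensed to 100 μM final, and hydrolysis was followed at 486 nm for 10 min. Percent inhibition was then calculated from maximum rates and fitted to an IC50.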

CTX-M15 β-lactamase = molecular target: T2, CTX-M15 β-lactamase (Escherichia coli, UniProt Q9EXV5); experiment: β-lactamase enzyme inhibition assay (nitrocefin substrate), CTXM-15; type: biochemical
T2 construct: expressed as native untagged proteins; made in house; host or cells: E. coli BL21(DE3)
T2 sequence (Q9EXV5 entry or part of it): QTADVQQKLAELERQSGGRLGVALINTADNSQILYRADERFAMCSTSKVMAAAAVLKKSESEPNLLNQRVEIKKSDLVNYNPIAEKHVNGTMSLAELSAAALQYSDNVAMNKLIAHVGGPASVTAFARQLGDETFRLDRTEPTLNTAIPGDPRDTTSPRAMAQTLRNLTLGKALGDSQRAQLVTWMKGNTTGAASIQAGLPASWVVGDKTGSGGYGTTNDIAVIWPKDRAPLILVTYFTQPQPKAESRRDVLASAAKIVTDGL
Method in brief: as §1

p99 AmpC β-lactamase = molecular target: T3, p99 AmpC β-lactamase (Enterobacter cloacae, UniProt P05364); experiment: β-lactamase enzyme inhibition assay (nitrocefin substrate), P99 AmpC; type: biochemical
T3 construct: expressed as native untagged proteins; made in house; host or cells: E. coli BL21(DE3)
T3 sequence (P05364 21-381): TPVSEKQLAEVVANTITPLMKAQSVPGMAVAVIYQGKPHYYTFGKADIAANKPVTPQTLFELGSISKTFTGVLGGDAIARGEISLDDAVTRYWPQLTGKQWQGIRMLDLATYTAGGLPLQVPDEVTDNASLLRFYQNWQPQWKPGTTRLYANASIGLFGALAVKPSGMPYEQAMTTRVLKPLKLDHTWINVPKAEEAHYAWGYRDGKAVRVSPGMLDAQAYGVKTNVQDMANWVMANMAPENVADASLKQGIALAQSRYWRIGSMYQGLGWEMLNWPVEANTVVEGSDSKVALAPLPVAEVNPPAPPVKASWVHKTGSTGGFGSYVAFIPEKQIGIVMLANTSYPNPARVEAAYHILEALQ
Method in brief: as §1

KPC-2 β-lactamase = molecular target: T4, KPC-2 β-lactamase (Klebsiella pneumoniae, UniProt Q9F663); experiment: β-lactamase enzyme inhibition assay (nitrocefin substrate), KPC-2; type: biochemical
T4 construct: expressed as native untagged proteins; made in house; host or cells: E. coli BL21(DE3)
T4 sequence (Q9F663 25-293 limits assumed): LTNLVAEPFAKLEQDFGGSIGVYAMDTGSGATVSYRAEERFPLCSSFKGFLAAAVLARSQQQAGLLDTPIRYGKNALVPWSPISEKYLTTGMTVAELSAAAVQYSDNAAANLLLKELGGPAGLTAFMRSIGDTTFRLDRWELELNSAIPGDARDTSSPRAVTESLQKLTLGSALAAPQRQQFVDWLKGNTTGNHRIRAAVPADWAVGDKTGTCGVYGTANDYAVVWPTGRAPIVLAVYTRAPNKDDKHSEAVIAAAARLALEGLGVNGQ
Method in brief: as §1

[1] = molecular target: T5, VIM-2 metallo β-lactamase (Pseudomonas aeruginosa, UniProt Q9K2N0); experiment: β-lactamase enzyme inhibition assay (nitrocefin substrate), VIM-2; type: biochemical; settings: nitrocefin 100 μM, 37° C., PBS pH 7.0; read-out: VIM-2 IC50
T5 construct: made in house
Procedure: Isolation of β-lactamases. For SHV-5, p99 AmpC, KPC-2 and CTX-M15 β-lactamases, E. coli BL21(DE3) bacterial cells carrying expression plasmids (expressed as native untagged proteins) for the individual β-lactamases were grown in 1 L of Superbroth (Teknova Inc. Hollister, Calif.) supplemented with 100 μg/ml kanamycin and 1×5052 (0.5% glycerol, 0.05% glucose and 0.2% α-lactose) at 35° C. for 18-20 hours. Cells were harvested by centrifugation (4,000×g, 4° C., 20 min), and resuspended in 50 ml of 10 mM HEPES pH 7.5 (1/20 of the initial volume). The cells were lysed by sonication (5 pulses of 45 seconds) at 45 W on ice. The lysates were clarified by centrifugation at 10,000×g for 40 minutes at 4° C. Samples were diluted 5-fold in 50 mM sodium acetate pH 5.0, stored overnight at 4° C., after which they were centrifuged at 10,000×g for 30 minutes to clarify, and filtered through 0.45 μm filters. The samples were loaded onto a 5 ml Capto S sepharose cation exchange column (GE Healthcare) pre-equilibrated with 50 mM sodium acetate pH 5.0. The column was washed with 5 column volumes of 50 mM sodium acetate pH 5.0 to wash out unbound protein and a linear gradient of NaCl (0 to 500 mM) was used to elute the protein (over 16 CV) from the column. Fractions were assayed for β-lactamase activity using Centa (Calbiochem, Gibbstown, N.J.) as a reporter β-lactamase substrate for activity in the isolated fractions. Active fractions were pooled, concentrated and further purified by gel filtration chromatography on a Superdex 75 prep grade gel filtration column (GE Healthcare, Piscataway, N.J.) pre-equilibrated in 50 mM Hepes pH 7.5, 150 mM NaCl. Active fractions were pooled concentrated, quantitated by BCA protein determination (Thermo Scientific, Rockford, Ill.), and frozen at −80° C. in 20% glycerol until use.
For VIM-2 metallo (β-lactamase, the procedure was identical with the following exceptions: 1) the protein was not pH adjusted to pH 5 with 50 mM sodium acetate, 2) the chromatography step was changed to a 5 ml Q sepharose anion exchange column pre-equilibrated with 50 mM Hepes pH 7.5, and 3) elution of the protein was achieved by a linear gradient of NaCl (0-600 mM). Finally, the VIM-2 purification required a second run (3rd step) on the Q sepharose anion exchange column to achieve acceptable purity (>90%).
(§2) β-lactamase Inhibition. To determine the level of inhibition of β-lactamase enzymes, compounds were diluted in PBS at pH 7.0 to yield concentrations between 100 and 0.005 μM in microtiter plates. An equal volume of diluted enzyme stock was added, and the plates were incubated at 37° C. for 10 min. Nitrocefin solution was then dispensed as substrate into each well at a final concentration of 100 μM, and the plates were immediately read with the kinetic program at 486 nm for 10 min on the SPECTRAMAX® Plus^384 (high-throughput microplate spectrophotometer; Molecular Devices Corp., Sunnyvale, Calif.). Maximum rates of metabolism were then compared to those in control wells (without inhibitors), and percentages of enzyme inhibition were calculated for each concentration of inhibitor. The concentration of inhibitor needed to reduce the initial rate of hydrolysis of substrate by 50% (IC50) was calculated as the residual activity of β-lactamase at 486 nm using the SoftMax Pro 5.0 software (Molecular Devices Corp.).
Using the methodology described above, examples of the current invention were evaluated for their ability to inhibit β-lactamase enzymes. The results of these assays are summarized in Table 2 for representative enzymes across different subtypes (note SHV-5 and CTXM-15 exemplify different subclasses of Ambler Class A Extended Spectrum Beta Lactamases, KPC-2 exemplifies Class A carbapenemases, P99 represents chromosomal Class C AmpC, VIM-2 exemplifies subclass B1 of metallo-β-lactamases, and OXA-23 represents chromosome-encoded Class D oxacillin-hydrolyzing β-lactamases), NT=not tested.

OXA-23 β-lactamase = molecular target: T6, OXA-23 β-lactamase (Acinetobacter baumannii, UniProt Q9L4P2); experiment: β-lactamase enzyme inhibition assay (nitrocefin substrate), OXA-23 crude extract; type: biochemical; settings: nitrocefin 100 μM, 37° C., PBS pH 7.0; read-out: OXA-23 IC50
T6 construct: crude β-lactamase extracts were prepared from 20 ml overnight cultures; endogenous in cells; host or cells: Acinetobacter baumannii cells containing OXA-23 (crude freeze-thaw extract)
T6 sequence (Q9L4P2 18-273): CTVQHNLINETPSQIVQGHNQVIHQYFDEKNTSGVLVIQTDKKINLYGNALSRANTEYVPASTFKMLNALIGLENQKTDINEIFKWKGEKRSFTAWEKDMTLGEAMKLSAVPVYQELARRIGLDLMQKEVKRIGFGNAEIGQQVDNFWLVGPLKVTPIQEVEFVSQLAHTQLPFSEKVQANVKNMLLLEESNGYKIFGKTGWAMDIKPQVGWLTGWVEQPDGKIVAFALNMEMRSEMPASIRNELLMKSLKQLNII
Procedure: For OXA-23 β-lactamase, crude β-lactamase extracts were prepared from 20 ml overnight cultures with shaking. Acenitobacter baumanni cells containing OXA-23 were further diluted 10-fold and grown to mid-log phase (OD at 600 nm, 0.5-0.8) in Mueller-Hinton II (MH-II) broth at 37° C. The cells were pelleted at 5000 g, washed and resuspended in 2 mL PBS pH 7.0. The β-lactamases were extracted by four cycles of freezing and thawing followed by centrifugation. β-lactamase activity in the extracts was measured with the chromogenic cephalosporin nitrocefin. The amount of protein in each β-lactamase preparation was determined by the bicinchoninic acid (BCA) assay.
as §2

[2] = system: E. coli expressing the Class A ESBL SHV-5; experiment: In vitro antibacterial assay of β-lactamase inhibition (broth microdilution MIC), E. coli SHV-5; type: cell-based; settings: in presence of Ceftazidime 8 μg/ml (Examples 1-56)
Method in brief: (§3)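 MIC read by eye after 16–20 h at 37° C, with CLSI-standard inocula of strains grown 3–5 h in CAMHB containing 50 μg/mL ampicillin. Compounds tested in final 2-fold dilutions from 8 to 0.015 μg/mL together with a β-lactam antibiotic.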

[3] = system: K. pneumoniae expressing the Class A Extended Spectrum Beta-Lactamase (ESBL) CTX-M-15; experiment: In vitro antibacterial assay of β-lactamase inhibition (broth microdilution MIC), K. pneumoniae CTX-M-15; type: cell-based; settings: in presence of Ceftazidime 8 μg/ml (Examples 1-56)
Method in brief: as §3

[4] = system: E. cloacae expressing the Class C P99+; experiment: In vitro antibacterial assay of β-lactamase inhibition (broth microdilution MIC), E. cloacae P99+; type: cell-based; settings: in presence of Ceftazidime 8 μg/ml (Examples 1-56)
Method in brief: as §3

[5] = system: K. pneumoniae expressing the Class A carbapenemase KPC-2; experiment: microbe, parasite or virus in culture; type: cell-based; settings: in presence of Ceftazidime 8 μg/ml (Examples 1-56)
Method in brief: as §3

[6] = system: P. aeruginosa expressing the Class B metallo β-lactamase VIM-2; experiment: In vitro antibacterial assay of β-lactamase inhibition (broth microdilution MIC), P. aeruginosa VIM-2; type: cell-based; settings: in presence of Ceftazidime 16 μg/mL (Examples 1-56)
Method in brief: as §3

[7] = nitrocefin 100 μM, 37° C., PBS pH 7.0, read-out: P99 AmpC IC50

T1 sequence (P0A3M1 22-286): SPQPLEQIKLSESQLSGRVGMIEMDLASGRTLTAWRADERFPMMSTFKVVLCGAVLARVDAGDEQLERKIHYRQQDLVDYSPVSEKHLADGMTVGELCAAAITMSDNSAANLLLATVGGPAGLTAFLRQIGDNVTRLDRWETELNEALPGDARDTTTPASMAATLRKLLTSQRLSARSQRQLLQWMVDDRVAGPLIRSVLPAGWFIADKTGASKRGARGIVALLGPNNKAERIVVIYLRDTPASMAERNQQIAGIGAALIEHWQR

SMILES	pIC50 (SHV-5 β-lactamase)	pIC50 (CTX-M15 β-lactamase)	pIC50 (p99 AmpC β-lactamase; [7])	pIC50 (KPC-2 β-lactamase)	pIC50 [1]	pIC50 (OXA-23 β-lactamase)	MIC of example compound, E. coli SHV-5 [2]	MIC of example compound, K. pneumoniae CTX-M-15 [3]	MIC of example compound, E. cloacae P99+ [4]	MIC of example compound, K. pneumoniae KPC-2 [5]	MIC of example compound, P. aeruginosa VIM-2 [6]	pIC50 (p99 AmpC β-lactamase)
NCCNCc1cccc(C(=O)N[C@@H](Cc2cccc(C(=O)O)c2O)B(O)O)c1 [Example 18, (1R)-[3-{(2-aminoethylamino)-methyl}-benzoylamino]-(3-carboxy-2-hydroxy)benzyl-methylboronic acid formate]	6.59	9.00	9.52	7.85	7.00	7.39	8 µg/mL	0.5 µg/mL	0.25 µg/mL	0.06 µg/mL	>8 µg/mL	
CNCc1ccc(C(=O)N[C@@H](Cc2cccc(C(=O)O)c2O)B(O)O)cc1.Cl [Example 11, (1R)-[4-(methylamino)methyl]-benzoylamino-(3-carboxy-2-hydroxy)benzyl-methyl boronic acid hydrochloride]	< 6.00	8.40	9.00	8.40	7.24	< 6.00	8 µg/mL	1 µg/mL	0.25 µg/mL	<0.01 µg/mL	8 µg/mL	
NCc1cccc(C(=O)N[C@@H](Cc2cccc(C(=O)O)c2O)B(O)O)c1 [Example 1, 2(R)-3-[2-(3-(Aminomethyl)benzoylamino)-2-borono-ethyl]-2-hydroxy-benzoic acid hydrochloride]	6.19	8.52	9.00	7.70	6.82	7.19	4 µg/mL	1 µg/mL	0.25 µg/mL	0.125 µg/mL	8 µg/mL	
Nc1cc(CC(=O)N[C@@H](Cc2cccc(C(=O)O)c2O)B(O)O)ccn1 [Example 45, (2R)-3-{2-[(2-amino-pyridin-4-yl-acetyl)-amino]-2-borono-ethyl}-2-hydroxy-benzoic acid formate]	8.00	9.30		8.22	6.09	6.95	0.03 µg/mL	0.03 µg/mL	0.06 µg/mL	0.007 µg/mL	>8 µg/mL	8.70
O=C(N[C@@H](Cc1cccc(C(=O)O)c1O)B(O)O)c1ccc(CN2CCOCC2)cc1 [Example 3, 2(R)-3-[2-(4-(Morpholinomethyl)benzoylamino)-2-borono-ethyl]-2-hydroxy-benzoic acid formate]	6.44	8.40	8.52	7.85	6.07	< 6.00	8 µg/mL	2 µg/mL	4 µg/mL	0.12 µg/mL	>8 µg/mL	
NCCNCc1ccc(CC(=O)N[C@@H](Cc2cccc(C(=O)O)c2O)B(O)O)cc1 [Example 35, (1R)-[2-{4-((2-amino-ethylamino)-methyl)-phenyl}-acetylamino]-(3-carboxy-2hydroxy)benzyl-methylboronic acid formate]	8.70	8.15	8.30	7.77	6.71	7.01	0.5 µg/mL	0.25 µg/mL	0.25 µg/mL	0.03 µg/mL	>8 µg/mL	
CC/C(=N/O)C(=O)N[C@@H](Cc1cccc(C(=O)O)c1O)B(O)O [Example 55, 3-[2(R)-(2-hydroxyimino-butyrylamino)-2-borono-ethyl]-2-hydroxy-benzoic acid]	6.92	9.00	9.30	8.22	< 6.00	7.17	2 µg/mL	2 µg/mL	1 µg/mL	0.06 µg/mL	>8 µg/mL	
NCc1ccc(CC(=O)N[C@@H](Cc2cccc(C(=O)O)c2O)B(O)O)cc1 [Example 30, (1R)-[2-(4-aminomethyl-phenyl)-acetylamino]-(3-carboxy-2hydroxy)benzyl-methylboronic acid formate]	8.52	8.15	7.92	8.05	6.57	6.60	0.5 µg/mL	0.06 µg/mL	0.12 µg/mL	0.01 µg/mL	>8 µg/mL	

— patent publication US20100292185A1, “BETA-LACTAMASE INHIBITORS” (priority 2009, published 2010)
